Measurements from patent publication EP1862466A2, “Arrays with cleavable linkers” (THE SCRIPPS RESEARCH INSTITUTE, priority 2004, dated 2006).
One block for each compound: values may come before it.

Experiments:
[1] = test system: MBr1 anti-Globo H monoclonal antibody (IgM); assay: Microarray analysis of Globo H derivatives with MBr1 antibody; assay type: binding, mouse; conditions: sugars spotted on NHS-coated glass slide; FITC secondary antibody
Experimental: NHS-coated glass slides were spotted with methanolic solutions of sugars 201-204a with concentrations of 5, 10, 20, 30, 40, 50, 60, 80 and 100 µM from bottom to top with ten duplicates horizontally placed in each grid. This attachment procedure is illustrated in FIG. 12. The slide was washed with PBS buffer for one minute.
This solution was added below the printed grid of sugars and then spread through the application of a coverslip. Incubation in a glass humidifying chamber was performed with shaking for 1 hour. Following this, the slide was washed 5x with 0.05 % tween20 / PBS buffer, 5x with PBS buffer and 5x with water. Next, 200 µL of a 70 µg/mL solution of FITC-tagged goat anti-mouse antibody (Cal Biochem) was formed and added to the slide as before. […] A fluorescence scan was then performed on the slide. The resulting image was analyzed using the program Imagene to locate and quantify the fluorescence of all the spots within the grid.
Disulfide linker immobilization (of type 217): The BOC protected derivative of disulfide linker 215 (3.9 mg, 13.5 µmol) was dissolved in 1 mL of dichloromethane and 1 mL trifluoroacetic acid was added. […] These solutions were spotted on a solid surface and analyzed along side 201-204a. […]
Images such as the one shown in FIG. 13 could then be processed using the program Imagene to encircle and quantify the fluorescence of each spot. […]

[2] = test system: chST6GalNAc-I; assay: chST6GalNAc-I activity on small acceptor molecules (α-D-galacto derivatives); assay type: biochemical, chicken; conditions: substance used as acceptor
From the text: The inventors have previously reported the cloning, expression, and characterization of chicken ST6GalNAc-I and its use in preparative synthesis of the O-linked sialoside antigens, STn-, α(2-6)SiaT-, α(2-3)SiaT- and Di-SiaT-antigen. Blixt, O.;Allin, K.;Pereira, L.;Datta, A. and Paulson, J. C., J. Am. Chem. Soc. 2002, 124, 5739-5746. Briefly, the recombinant enzyme was expressed in insect cells and purified by CDP-sepharose affinity chromatography to generate approximately 10 U/L of cell culture. The enzymatic activity was evaluated on a set of small acceptor molecules. […] Table 6. chST6GalNAc-I Activity of α-D-Galacto Derivatives

[3] = test system: 2G12 antibody; assay: Carbohydrate microarray analysis, microtiter-based, Scatchard plot (Kd); assay type: binding, human; conditions: microtiter plate array
Experimental: Carbohydrate microarray analysis. Ninety-six well NHS-coated microtiter plates (NoAb Biodiscoveries) were treated with 200 µL of a 1 mM methanolic solution of the amino-functionalized disulfide and alkyne containing linker (scheme V) containing 5 % diisopropylethylamine (DIEA) and incubated overnight at 4°C. The microtiter plate was then washed with 2 x 200 µL methanol and 2 x 200 µL water. Next, 200 µL solutions of azido-functionalized oligomannose derivatives 21-25 at varying concentrations from 0 to 500 µM in 5 % DIEA / methanol were introduced. A sprinkle of copper (I) iodide was added and the contents were allowed to react overnight at 4°C. The next day, the contents were removed and the plates were washed with 2 x 200 µL methanol and 2 x 200 µL water. The plates were then blocked with 0.1 % Tween20 solution in HEPES buffer pH 7.5 at 4 °C for 1 hour and then washed with 3 x 200 µL HEPES buffer. Next, 200 µL of a 1 µg/mL solution of 2G12 antibody in 0.1 % Tween20 / PBS buffer was added to the wells for a 1 hour incubation at 4 °C and then washed with 2 x 200 µL PBS buffer. At this point, 200 µL of FITC-tagged goat anti-human IgG antibody (10 µg/mL in PBS, Cal Biochem) was added for 1 hour at 4 °C, and the wells were then washed with 2 x 200 µL PBS buffer. Detection of the FITC-tagged secondary antibody was performed in 200 µL water using a fluorescence plate reader. The resulting data yielded the oligomannose-2G12 binding isotherms and Scatchard plot analysis was implemented in the determination of dissociation constants. Adams et al. (2004) Chem. Biol. 11: 875-81.
Overall, many of the oligomannose derivatives can compete for binding of Man9GlcNAc2, and, therefore, may serve as building blocks for potential immunogens to elicit 2G12-like antibodies. Carbohydrate Microarray Analysis. Previous studies by the inventors using covalent microtiter plates with a panel of carbohydrate epitopes for interaction with 2G12 involved converting the amine-containing oligomannoses 4, 5, 7, 8 and 9 to the corresponding azide derivatives 21, 22, 23, 24 and 25. These derivatives were then covalently attached to a microplate-immobilized cleavable linker via the Cu (I)-catalyzed 1,3-dipolar cycloaddition reaction (FIG. 11B). Kd values for the interaction of 2G12 with oligomannoses 4, 5, 7, 8, 9 (Table 9) were determined using a microtiter-based assay with detection via a fluorescent secondary antibody (see Bryan et al.(2004) J. Am. Chem. Soc. 126, 8640-41). Table 9: The Kd values of oligomannoses 1 and 4, 5, 7, 8, 9 binding to 2G12, as determined by carbohydrate microarray analysis.

[4] = test system: interaction between 2G12 and gp120; assay: Solution phase ELISA: oligomannose inhibition of 2G12 binding to gp120; set-up: species or system HIV-1; conditions: oligomannose at 0.5 mM
Experimental: Enzyme-linked immunosorbent assay. Microtiter plate wells (flat bottom, Costar type 3690; Corning Inc.) were coated with 50 ng/well gp120JR-CSF overnight at 4°C. All subsequent steps were performed at room temperature. The wells were then washed four times with PBS/0.05% (vol/vol) Tween20 (Sigma) using a microplate washer (SkanWash 400, Molecular Devices) prior to blocking for 1 hr with 3% (mass/vol) BSA. IgG 2G12, diluted to 0.5 µg/mL (25 ng/well) with 1% (mass/vol) BSA/0.02% (vol/vol) Tween20/PBS (PBS-BT), was then added for 2 hrs to the antigen-coated wells in the presence of serially-diluted oligomannoses starting at 2mM. Unbound antibody was removed by washing four times, as described above. Bound 2G12 was detected with an alkaline phosphatase-conjugated goat anti-human IgG F(ab')2 antibody (Pierce) diluted 1:1000 in PBS-BT. After 1hr, the wells were washed four times and bound antibody was visualized with p-nitrophenol phosphate substrate (Sigma) and monitored at 405 nm.
Binding. Man9GlcNAc2 1 and deprotected oligomannoses 2-6 and 7-9 (see FIG. 17) were evaluated for their ability to inhibit the interaction between 2G12 and gp120 in a solution phase enzyme-linked immunosorbent assay (ELISA). […]

- binding of MBr1 antibody to immobilized sugar (in words) [1]: greatest affinity
SMILES: CC(=O)N[C@H]1[C@H](O[C@H]2[C@@H](O)[C@@H](CO)O[C@H](O[C@@H]3[C@H](O)[C@@H](O)[C@H](O[C@H]4[C@H](O)[C@@H](O)[C@H](OCCCCCN)O[C@@H]4CO)O[C@@H]3CO)[C@@H]2O)O[C@H](CO)[C@H](O)[C@@H]1O[C@@H]1O[C@H](CO)[C@H](O)[C@H](O)[C@H]1O[C@@H]1O[C@@H](C)[C@@H](O)[C@@H](O)[C@@H]1O [Compound 204a]

SMILES: C[C@@H]1O[C@@H](O[C@H]2[C@H](OCCCCCN)O[C@H](CO)[C@H](O)[C@@H]2O)[C@@H](O)[C@H](O)[C@@H]1O [Compound 201a]
- binding of MBr1 antibody to immobilized sugar (in words) [1]: no recruitment of antibody to the surface

SMILES: CC(=O)N[C@H]1C(O)O[C@H](CO)[C@H](O)[C@@H]1O (stereo partly drawn) [D-GalNAc]
- chST6GalNAc-I Activity, cpm [2]: 0 cpm
- chST6GalNAc-I Activity, nmol/mg x min^-1 [2]: 0.00 nmol/mg x min^-1

SMILES: NCCCCCO[C@H]1O[C@H](CO[C@H]2O[C@H](CO)[C@@H](O)[C@H](O)[C@@H]2O[C@H]2O[C@H](CO)[C@@H](O)[C@H](O)[C@@H]2O)[C@@H](O)[C@H](O[C@H]2O[C@H](CO)[C@@H](O)[C@H](O)[C@@H]2O[C@H]2O[C@H](CO)[C@@H](O)[C@H](O)[C@@H]2O)[C@@H]1O [Oligomannose 5]
- affinity for 2G12 antibodies (in words) [3]: greatest affinity
- inhibition (%) of 2G12 binding to gp120 [4]: 37.7%
